# Tests used:
# crabgrass = test: Test B pre/postemergence crabgrass; type: in vivo, Digitaria sanguinalis
# Procedure, shortened: (§1)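 Response is a visual 0-to-10 score relative to untreated plants, where 0 means no effect and 10 means complete control, taken twelve to sixteen days after application. Treatments went onto soil at planting and onto foliage of 1- to 4-leaf plants, using a surfactant-containing non-phytotoxic solvent.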
# blackgrass = test: Test B pre/postemergence blackgrass; type: in vivo, Alopecurus myosuroides
# Procedure, shortened: as §1
# wild oat = test: Test B pre/postemergence wild oat; type: in vivo, Avena fatua
# Procedure, shortened: as §1
# sugar beet = test: Test B pre/postemergence sugar beet; type: in vivo, Beta vulgaris
# Procedure, shortened: as §1
# giant foxtail = test: Test B pre/postemergence giant foxtail; type: in vivo, Setaria faberii
# Procedure, shortened: as §1
# velvetleaf = test: Test B pre/postemergence velvetleaf; type: in vivo, Abutilon theophrasti
# Procedure, shortened: as §1
# corn = test: Test B pre/postemergence corn; type: in vivo, Zea mays
# Procedure, shortened: as §1
# wheat = test: Test B pre/postemergence wheat; type: in vivo, Triticum aestivum
# Procedure, shortened: as §1
# surinam grass = test: Test B pre/postemergence surinam grass; type: in vivo, Brachiaria decumbens
# Procedure, shortened: as §1
# bedstraw = test: Test B pre/postemergence bedstraw; type: in vivo, Galium aparine; settings: Preemergence
# Procedure, shortened: as §1
# rape = test: Test B pre/postemergence rape; type: in vivo, Brassica napus
# Procedure, shortened: as §1
# pigweed = test: Test B pre/postemergence pigweed; type: in vivo, Amaranthus retroflexus
# Procedure, shortened: as §1
# cocklebur = test: Test B pre/postemergence cocklebur; type: in vivo, Xanthium strumarium
# Procedure, shortened: as §1
# soybean = test: Test B pre/postemergence soybean; type: in vivo, Glycine max
# Procedure, shortened: as §1
# purple nutsedge = test: Test B pre/postemergence purple nutsedge; type: in vivo, Cyperus rotundus
# Procedure, shortened: as §1
# morningglory = test: Test B pre/postemergence morningglory; type: in vivo, Ipomoea hederacea
# Procedure, shortened: as §1
# [1] = Postemergence, Rate 62 g/ha, scale 0 to 10, 0 is no effect, 10 is complete control
# [2] = Postemergence, Rate 125 g/ha, scale of 0 to 10 where 0 is no effect and 10 is complete control
# [3] = Postemergence, Rate 250 g/ha, scale of 0 to 10, 0 is no effect, 10 is complete control
# [4] = Preemergence, Rate 62 g/ha, scale of 0 to 10 where 0 is no effect and 10 is complete control
# [5] = Preemergence, Rate 125 g/ha, scale of 0 to 10 where 0 is no effect and 10 is complete control
# [6] = Preemergence, Rate 250 g/ha, scale 0 to 10 (0 no effect, 10 complete control)
# [7] = Preemergence, Rate 500 g/ha, scale of 0 to 10 where 0 is no effect and 10 is complete control
# [8] = Rate 500 g/ha, Postemergence, scale 0 to 10, 0 is no effect, 10 is complete control
smiles,measurement,setting,value
CC(C)N(C(=O)n1oc(=O)n(Cc2nnc(Cl)s2)c1=O)c1ccc(Cl)cc1 [Compound 653],"Plant response rating, Crabgrass",crabgrass; [1],0
same,Crabgrass plant response rating,crabgrass; [2],0
same,Crabgrass plant response rating,crabgrass; [3],0
same,Crabgrass plant response rating,crabgrass; [4],0
same,Crabgrass plant response rating,crabgrass; [5],2
same,"Plant response rating, Crabgrass",crabgrass; [6],6
same,"Plant response rating, Crabgrass",crabgrass; [7],8
same,Crabgrass plant response rating,crabgrass; [8],2
same,"Plant response rating, Blackgrass",blackgrass; [1],0
same,Blackgrass plant response rating,blackgrass; [2],0
same,Blackgrass plant response rating,blackgrass; [3],0
same,Blackgrass plant response rating,blackgrass; [4],0
same,Blackgrass plant response rating,blackgrass; [5],0
same,"Plant response rating, Blackgrass",blackgrass; [6],0
same,"Plant response rating, Blackgrass",blackgrass; [7],0
same,Blackgrass plant response rating,blackgrass; [8],0
same,"Plant response rating, Wild oats",wild oat; [1],0
same,Wild oats plant response rating,wild oat; [2],0
same,Wild oats plant response rating,wild oat; [4],0
same,Wild oats plant response rating,wild oat; [5],0
same,"Plant response rating, Wild oats",wild oat; [6],0
same,"Plant response rating, Wild oats",wild oat; [7],2
same,Wild oats plant response rating,wild oat; [8],0
same,"Plant response rating, Sugarbeets",sugar beet; [1],0
same,Sugarbeets plant response rating,sugar beet; [2],0
same,Sugarbeets plant response rating,sugar beet; [4],0
same,Sugarbeets plant response rating,sugar beet; [5],0
same,"Plant response rating, Sugarbeets",sugar beet; [6],0
same,"Plant response rating, Sugarbeets",sugar beet; [7],0
same,Sugarbeets plant response rating,sugar beet; [8],0
same,"Plant response rating, Giant foxtail",giant foxtail; [1],0
same,Giant foxtail plant response rating,giant foxtail; [2],0
same,Giant foxtail plant response rating,giant foxtail; [3],2
same,Giant foxtail plant response rating,giant foxtail; [4],0
same,Giant foxtail plant response rating,giant foxtail; [5],0
same,"Plant response rating, Giant foxtail",giant foxtail; [6],2
same,"Plant response rating, Giant foxtail",giant foxtail; [7],8
same,Giant foxtail plant response rating,giant foxtail; [8],7
same,"Plant response rating, Velvetleaf",velvetleaf; [1],0
same,Velvetleaf plant response rating,velvetleaf; [2],0
same,Velvetleaf plant response rating,velvetleaf; [4],0
same,Velvetleaf plant response rating,velvetleaf; [5],0
same,"Plant response rating, Velvetleaf",velvetleaf; [6],0
same,"Plant response rating, Velvetleaf",velvetleaf; [7],0
same,Velvetleaf plant response rating,velvetleaf; [8],0
same,"Plant response rating, Corn",corn; [1],0
same,Corn plant response rating,corn; [2],0
same,Corn plant response rating,corn; [3],0
same,Corn plant response rating,corn; [4],0
same,Corn plant response rating,corn; [5],0
same,"Plant response rating, Corn",corn; [6],0
same,"Plant response rating, Corn",corn; [7],0
same,Corn plant response rating,corn; [8],0
same,"Plant response rating, Wheat",wheat; [1],0
same,Wheat plant response rating,wheat; [2],0
same,Wheat plant response rating,wheat; [4],0
same,Wheat plant response rating,wheat; [5],0
same,"Plant response rating, Wheat",wheat; [6],0
same,"Plant response rating, Wheat",wheat; [7],0
same,Wheat plant response rating,wheat; [8],0
same,"Plant response rating, B. signalgrass",surinam grass; [1],0
same,"Plant response rating, B. signalgrass",surinam grass; [2],0
same,B. signalgrass plant response rating,surinam grass; [3],0
same,B. signalgrass plant response rating,surinam grass; [4],0
same,B. signalgrass plant response rating,surinam grass; [5],0
same,"Plant response rating, B. signalgrass",surinam grass; [6],0
same,"Plant response rating, B. signalgrass",surinam grass; [7],0
same,B. signalgrass plant response rating,surinam grass; [8],2
same,Bedstraw plant response rating,"bedstraw; Rate 62 g/ha, scale of 0 to 10 where 0 is no effect and 10 is complete control",0
same,Bedstraw plant response rating,"bedstraw; Rate 125 g/ha, scale of 0 to 10 where 0 is no effect and 10 is complete control",0
same,"Plant response rating, Bedstraw","bedstraw; Rate 250 g/ha, scale 0 to 10 (0 no effect, 10 complete control)",0
same,"Plant response rating, Bedstraw","bedstraw; Rate 500 g/ha, scale of 0 to 10 where 0 is no effect and 10 is complete control",0
same,"Plant response rating, Rape",rape; [1],0
same,Rape plant response rating,rape; [2],0
same,Rape plant response rating,rape; [4],0
same,Rape plant response rating,rape; [5],0
same,"Plant response rating, Rape",rape; [6],0
same,"Plant response rating, Rape",rape; [7],0
same,Rape plant response rating,rape; [8],0
same,"Plant response rating, Redroot pigweed",pigweed; [1],0
same,Redroot pigweed plant response rating,pigweed; [2],0
same,Redroot pigweed plant response rating,pigweed; [4],0
same,Redroot pigweed plant response rating,pigweed; [5],0
same,"Plant response rating, Redroot pigweed",pigweed; [6],0
same,"Plant response rating, Redroot pigweed",pigweed; [7],3
same,Redroot pigweed plant response rating,pigweed; [8],0
same,"Plant response rating, Cocklebur",cocklebur; [1],0
same,Cocklebur plant response rating,cocklebur; [2],0
same,Cocklebur plant response rating,cocklebur; [3],0
same,Cocklebur plant response rating,cocklebur; [4],0
same,"Plant response rating, Cocklebur",cocklebur; [6],0
same,"Plant response rating, Cocklebur",cocklebur; [7],0
same,Cocklebur plant response rating,cocklebur; [8],0
same,"Plant response rating, Soybean",soybean; [1],0
same,Soybean plant response rating,soybean; [2],0
same,Soybean plant response rating,soybean; [4],0
same,Soybean plant response rating,soybean; [5],0
same,"Plant response rating, Soybean",soybean; [6],0
same,"Plant response rating, Soybean",soybean; [7],0
same,Soybean plant response rating,soybean; [8],0
same,"Plant response rating, Nutsedge",purple nutsedge; [1],0
same,Nutsedge plant response rating,purple nutsedge; [2],0
same,Nutsedge plant response rating,purple nutsedge; [4],0
same,"Plant response rating, Nutsedge",purple nutsedge; [7],0
same,Nutsedge plant response rating,purple nutsedge; [8],0
same,"Plant response rating, Morningglory",morningglory; [1],0
same,Morningglory plant response rating,morningglory; [2],1
same,Morningglory plant response rating,morningglory; [3],1
same,Morningglory plant response rating,morningglory; [4],0
same,Morningglory plant response rating,morningglory; [5],0
same,"Plant response rating, Morningglory",morningglory; [6],0
same,"Plant response rating, Morningglory",morningglory; [7],0
same,Morningglory plant response rating,morningglory; [8],1

# Source: US6737383B1, “Herbicidal oxadiazolidines” (priority 1999, dated 2004)
